From PMC7217030 (Journal of medicinal chemistry, 2018)

What was measured:
[1] = target: T1, full length and native ERα (Homo sapiens, UniProt P03372); experiment: Cell-based transcriptional assay, ERα antagonist mode; conditions: concentrations up to 10 μM
T1 sequence (P03372 1-595): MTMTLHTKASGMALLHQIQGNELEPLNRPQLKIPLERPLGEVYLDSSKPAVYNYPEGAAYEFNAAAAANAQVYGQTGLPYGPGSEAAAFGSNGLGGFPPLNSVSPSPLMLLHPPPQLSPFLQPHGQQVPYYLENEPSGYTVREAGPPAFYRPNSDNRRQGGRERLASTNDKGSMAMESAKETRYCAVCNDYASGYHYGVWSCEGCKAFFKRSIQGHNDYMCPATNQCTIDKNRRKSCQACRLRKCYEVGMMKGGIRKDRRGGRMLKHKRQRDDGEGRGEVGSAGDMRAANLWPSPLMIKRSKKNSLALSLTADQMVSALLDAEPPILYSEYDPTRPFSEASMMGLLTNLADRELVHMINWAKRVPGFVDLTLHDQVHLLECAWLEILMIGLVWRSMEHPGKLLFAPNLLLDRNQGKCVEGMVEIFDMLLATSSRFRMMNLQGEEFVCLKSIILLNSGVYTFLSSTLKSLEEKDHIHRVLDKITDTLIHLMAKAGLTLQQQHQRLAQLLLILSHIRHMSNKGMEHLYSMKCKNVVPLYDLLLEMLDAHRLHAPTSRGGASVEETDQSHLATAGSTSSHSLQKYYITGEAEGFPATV

[2] = target: T2, androgen receptor (AR) LBD fused to GAL4 DBD (Homo sapiens, UniProt P10275); experiment: GeneBLAzer nuclear hormone receptor specificity assay, agonist mode, AR; type: cell-based; conditions: 0.25 to 25 μM
T2 sequence (P10275 669-900 limits assumed): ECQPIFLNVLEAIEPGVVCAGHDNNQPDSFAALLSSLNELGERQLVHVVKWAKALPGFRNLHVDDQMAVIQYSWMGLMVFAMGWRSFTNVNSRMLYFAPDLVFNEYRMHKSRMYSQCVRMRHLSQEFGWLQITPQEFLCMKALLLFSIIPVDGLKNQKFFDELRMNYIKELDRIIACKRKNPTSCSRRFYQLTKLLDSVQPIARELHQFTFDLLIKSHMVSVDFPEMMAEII

[3] = target: T3, glucocorticoid receptor (GR) LBD fused to GAL4 DBD (Homo sapiens, UniProt P04150); experiment: GeneBLAzer nuclear hormone receptor specificity assay, agonist mode, GR; type: cell-based; conditions: 0.25 to 25 μM
T3 sequence (P04150 524-758 limits assumed): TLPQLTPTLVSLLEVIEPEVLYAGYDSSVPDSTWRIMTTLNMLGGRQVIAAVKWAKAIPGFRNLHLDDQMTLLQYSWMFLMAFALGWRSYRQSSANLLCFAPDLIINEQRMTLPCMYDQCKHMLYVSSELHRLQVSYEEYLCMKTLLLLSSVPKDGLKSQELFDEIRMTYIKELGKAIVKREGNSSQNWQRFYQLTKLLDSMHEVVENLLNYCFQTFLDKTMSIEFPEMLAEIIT

[4] = target: T4, mineralocorticoid receptor (MR) LBD fused to GAL4 DBD (Homo sapiens, UniProt P08235); experiment: GeneBLAzer nuclear hormone receptor specificity assay, agonist mode, MR; type: cell-based; conditions: 0.25 to 25 μM
T4 sequence (P08235 726-964 limits assumed): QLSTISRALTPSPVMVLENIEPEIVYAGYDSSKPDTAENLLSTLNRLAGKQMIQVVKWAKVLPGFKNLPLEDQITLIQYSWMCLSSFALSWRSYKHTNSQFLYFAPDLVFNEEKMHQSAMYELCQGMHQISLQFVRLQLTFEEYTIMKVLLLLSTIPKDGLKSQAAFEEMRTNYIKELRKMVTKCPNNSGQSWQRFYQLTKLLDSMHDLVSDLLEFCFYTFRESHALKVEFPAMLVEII

[5] = target: T5, peroxisome proliferator-activated receptor (PPARδ) LBD fused to GAL4 DBD (Homo sapiens, UniProt Q03181); experiment: GeneBLAzer nuclear hormone receptor specificity assay, agonist mode, PPARδ; type: cell-based; conditions: 0.25 to 25 μM
T5 sequence (Q03181 211-439 limits assumed): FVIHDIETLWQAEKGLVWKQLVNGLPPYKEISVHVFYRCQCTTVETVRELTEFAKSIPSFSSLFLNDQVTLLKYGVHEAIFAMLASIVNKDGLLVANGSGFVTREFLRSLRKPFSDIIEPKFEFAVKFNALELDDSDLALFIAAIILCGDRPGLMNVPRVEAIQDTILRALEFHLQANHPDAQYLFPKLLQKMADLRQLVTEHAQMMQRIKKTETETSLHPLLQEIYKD

[6] = target: T6, progesterone receptor (PR) LBD fused to GAL4 DBD (Homo sapiens, UniProt P06401); experiment: GeneBLAzer nuclear hormone receptor specificity assay, agonist mode, PR; type: cell-based; conditions: 0.25 to 25 μM
T6 sequence (P06401 679-913 limits assumed): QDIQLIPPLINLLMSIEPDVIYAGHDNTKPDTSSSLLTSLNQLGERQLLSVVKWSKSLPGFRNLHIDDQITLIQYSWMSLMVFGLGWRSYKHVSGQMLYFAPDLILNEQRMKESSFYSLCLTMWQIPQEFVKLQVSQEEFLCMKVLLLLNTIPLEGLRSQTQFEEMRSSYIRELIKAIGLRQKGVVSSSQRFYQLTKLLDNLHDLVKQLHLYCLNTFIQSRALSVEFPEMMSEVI

[7] = target: T7, thyroid hormone receptor (TRβ) LBD fused to GAL4 DBD (Homo sapiens, UniProt P10828); experiment: GeneBLAzer nuclear hormone receptor specificity assay, agonist mode, TRβ; type: cell-based; conditions: 0.25 to 25 μM
T7 sequence (P10828 217-461 limits assumed): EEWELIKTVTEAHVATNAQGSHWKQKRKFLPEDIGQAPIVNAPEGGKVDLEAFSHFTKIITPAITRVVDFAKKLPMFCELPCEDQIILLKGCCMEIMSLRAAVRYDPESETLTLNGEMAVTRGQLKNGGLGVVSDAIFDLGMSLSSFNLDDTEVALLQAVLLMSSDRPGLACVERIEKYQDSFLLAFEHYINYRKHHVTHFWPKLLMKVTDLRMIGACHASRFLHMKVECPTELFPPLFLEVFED

[8] = target: T8, vitamin D receptor (VDR) LBD fused to GAL4 DBD (Homo sapiens, UniProt P11473); experiment: GeneBLAzer nuclear hormone receptor specificity assay, agonist mode, VDR; type: cell-based; conditions: 0.25 to 25 μM
T8 sequence (P11473 127-423 limits assumed): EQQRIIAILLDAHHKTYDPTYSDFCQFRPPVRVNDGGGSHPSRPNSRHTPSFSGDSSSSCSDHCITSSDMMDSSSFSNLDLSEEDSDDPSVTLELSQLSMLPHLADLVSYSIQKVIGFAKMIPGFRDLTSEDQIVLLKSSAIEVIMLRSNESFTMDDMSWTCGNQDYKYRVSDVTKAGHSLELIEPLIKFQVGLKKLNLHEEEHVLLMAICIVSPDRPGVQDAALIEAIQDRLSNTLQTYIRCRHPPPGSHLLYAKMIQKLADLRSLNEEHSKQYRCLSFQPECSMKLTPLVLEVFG

ERα LBD = target: T9, ERα LBD (Homo sapiens, UniProt P03372); experiment: LanthaScreen TR-FRET coactivator; type: biochemical
T9 sequence (P03372 311-547 limits assumed): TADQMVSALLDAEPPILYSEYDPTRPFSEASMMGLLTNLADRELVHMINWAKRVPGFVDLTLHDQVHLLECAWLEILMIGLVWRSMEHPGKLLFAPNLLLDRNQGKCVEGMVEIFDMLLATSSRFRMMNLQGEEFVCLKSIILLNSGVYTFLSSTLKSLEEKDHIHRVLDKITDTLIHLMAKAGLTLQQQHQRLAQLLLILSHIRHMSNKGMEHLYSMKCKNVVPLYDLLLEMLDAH

CYP1A2 = target: T10, CYP1A2 (Homo sapiens, UniProt P05177); experiment: P450-Glo cytochrome P450 inhibition, CYP1A2; type: in vitro ADME; conditions: highest concentration 62.5 μM
T10 sequence (P05177 1-516): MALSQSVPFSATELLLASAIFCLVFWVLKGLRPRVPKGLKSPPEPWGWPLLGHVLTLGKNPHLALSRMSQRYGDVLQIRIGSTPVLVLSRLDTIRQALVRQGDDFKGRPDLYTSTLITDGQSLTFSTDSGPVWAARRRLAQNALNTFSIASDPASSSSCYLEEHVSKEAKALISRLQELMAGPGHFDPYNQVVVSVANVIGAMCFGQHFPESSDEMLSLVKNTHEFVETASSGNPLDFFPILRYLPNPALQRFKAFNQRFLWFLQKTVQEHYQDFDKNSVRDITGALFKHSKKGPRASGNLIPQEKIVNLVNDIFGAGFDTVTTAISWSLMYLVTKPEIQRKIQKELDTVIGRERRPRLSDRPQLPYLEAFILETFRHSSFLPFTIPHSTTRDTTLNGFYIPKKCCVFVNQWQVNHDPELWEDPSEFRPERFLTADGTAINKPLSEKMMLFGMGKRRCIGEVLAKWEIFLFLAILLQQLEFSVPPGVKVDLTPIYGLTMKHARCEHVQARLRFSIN

CYP2D6 = CYP2D6 (Homo sapiens, UniProt P10635); experiment: P450-Glo cytochrome P450 inhibition, CYP2D6; type: in vitro ADME; conditions: highest concentration 62.5 μM
ovariectomized mice [9] = experiment: Object placement task; conditions: for time with moved object vs chance, object placement: tested 24 h after training; for preference for moved object vs chance, object placement: within 1 month of ovariectomy
ovariectomized mice [10] = experiment: Object recognition task; conditions: for preference for novel object vs chance, object recognition: IP injection

Chain of CYP2D6 (P10635 whole entry): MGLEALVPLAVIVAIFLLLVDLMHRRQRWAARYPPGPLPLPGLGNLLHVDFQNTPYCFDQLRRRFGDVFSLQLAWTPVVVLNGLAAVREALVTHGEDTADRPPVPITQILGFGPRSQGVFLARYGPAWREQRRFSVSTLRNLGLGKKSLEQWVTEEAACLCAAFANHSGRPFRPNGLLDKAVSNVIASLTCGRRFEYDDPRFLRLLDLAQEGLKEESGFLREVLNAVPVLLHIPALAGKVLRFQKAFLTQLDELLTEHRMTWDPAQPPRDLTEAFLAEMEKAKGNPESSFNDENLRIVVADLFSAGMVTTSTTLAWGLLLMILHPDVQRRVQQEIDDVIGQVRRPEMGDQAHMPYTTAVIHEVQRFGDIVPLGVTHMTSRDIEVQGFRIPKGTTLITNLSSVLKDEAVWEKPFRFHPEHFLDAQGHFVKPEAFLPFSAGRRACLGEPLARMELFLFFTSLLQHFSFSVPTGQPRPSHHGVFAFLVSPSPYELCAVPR

In the case of OC[C@H]1CC[C@H](c2ccc(O)cc2)CC1 [ISP358–2], the ERα antagonist activity [1] is reported as “No measurable antagonist activity”, the “agonist activity at AR” value [2] is reported as “not an agonist” and the “agonist activity at GR” value [3] is reported as “not an agonist”. The “agonist activity at MR” value [4] was “not an agonist”, the “agonist activity at PPARδ” value [5] was “not an agonist” and the “agonist activity at PR” value [6] was “not an agonist”. The “agonist activity at TRβ” value [7] was “not an agonist”, the “agonist activity at VDR” value [8] was “not an agonist” and the EC50 (ERα LBD) was 2.94 µM. The “inhibition of CYP1A2” value (CYP1A2) was “no inhibition”, the “inhibition of CYP2D6” value (CYP2D6) was “no inhibition” and the “time with moved object vs chance, object placement” value (“time with moved object vs chance” below) (ovariectomized mice [9]; IP injection, 0.5 mg/kg) was “spent significantly more time than chance with the moved object”. For the same compound, the “time with moved object vs chance” value (ovariectomized mice [9]; IP injection, 5 mg/kg) was “spent significantly more time than chance with the moved object”, the “time with moved object vs chance” value (ovariectomized mice [9]; dorsal hippocampal infusion, 10 pg/hemisphere) was “did not spend significantly more time than chance with the moved object” and the “time with moved object vs chance” value (ovariectomized mice [9]; dorsal hippocampal infusion, 100 pg/hemisphere) was “spent significantly more time than chance with the moved object”. The “time with moved object vs chance” value (ovariectomized mice [9]; dorsal hippocampal infusion, 1 ng/hemisphere) was “spent significantly more time than chance with the moved object”, the “preference for moved object vs chance, object placement” value (ovariectomized mice [9]; oral gavage, 0.5 mg/kg) was “exhibited a significant preference for the moved object relative to chance” and the “preference for moved object vs chance, object placement” value (ovariectomized mice [9]; oral gavage, 5 mg/kg) was “exhibited a significant preference for the moved object relative to chance”. For the same compound, the “spatial memory consolidation after long-term estrogen deprivation, object placement” value (ovariectomized mice [9]; oral gavage, same doses, 4 months after ovariectomy, preliminary) was “did not enhance spatial memory consolidation”, the “preference for novel object vs chance, object recognition” value (ovariectomized mice [10]; 0.5 mg/kg, tested 48 h after training) was “exhibited a significant preference for the novel object relative to chance” and the “preference for novel object vs chance, object recognition” value (ovariectomized mice [10]; 5 mg/kg, tested 48 h after training) was “somewhat of a trend for the 5 mg/kg ISP358–2 to prefer the novel object”. The “time with novel object vs chance, object recognition” value (from here on “time with novel object vs chance”) (ovariectomized mice [10]; dorsal hippocampal infusion, 10 pg/hemisphere, tested 48 h after training) was “Neither the vehicle nor 10 pg of ISP358–2 groups showed a preference for the novel object”, the “time with novel object vs chance” value (ovariectomized mice [10]; dorsal hippocampal infusion, 100 pg/hemisphere, tested 48 h after training) was “spent significantly more time than chance with the novel object” and the “time with novel object vs chance” value (ovariectomized mice [10]; dorsal hippocampal infusion, 1 ng/hemisphere, tested 48 h after training) was “spent significantly more time than chance with the novel object”. The “time with novel object vs chance” value (ovariectomized mice [10]; oral gavage, 0.5 mg/kg) was “spent significantly more time with the novel object relative to chance” and the “time with novel object vs chance” value (ovariectomized mice [10]; oral gavage, 5 mg/kg) was “spent significantly more time with the novel object relative to chance”.
